Among the data in PubChem BioAssay AID1845194 (Molecular Pharmacology Branch, DTP, NCI, 2023) are IC50 and viability, T/C values, retold here.

Usually IC50 stands for the concentration needed to halve the response being measured. By viability, T/C is commonly meant the ratio of treated to control.

Structures are written as SMILES. Values joined by “and” are separate entries in the source; they are usually repeats but may differ in a detail not shown here. Equal entries are not always repeated. Some results are limits rather than exact numbers.

For the test, the system named is 287954-098-R-J1 tumor spheroid viability. The experiment in a line: Anticancer human tumor 287954-098-R-J1 patient-derived Ewing sarcoma cell line growth inhibition. The note with it: spheroids with HUVEC and MSC; for viability, T/C: stronger effect = lower value. A digest of the protocol: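 Single agents and combinations were tested on spheroids built from tumor cells plus HUVEC and hMSC, at half-log dilutions starting at or near clinical Cmax, else 10 microM; final DMSO 0.25% (v/v).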
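Further: spheroids exposed to compound for 7 days before viability readout.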
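Wherever viability, T/C is given: luminescent signal taken as surrogate of viable cell content; 100% = DMSO vehicle control viability and lower means growth inhibition.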

For the compound `O=C(c1cc(Cc2n[nH]c(=O)c3ccccc23)ccc1F)N1CCN(C(=O)C2CC2)CC1` + Cn1nnc2c(C(N)=O)ncn2c1=O, the IC50 reads like this: (curve of first compound, second compound 1 µM) 20600 nM; (curve of first compound, second compound 3.16 µM) 20900 nM; (curve of first compound, second compound 10 µM) 10400 nM; (curve of first compound, second compound 31.6 µM) 3410 nM; (curve of first compound, second compound 100 µM) 621 nM. Moreover, the viability, T/C runs as follows: (second compound 1 µM, first compound 0.0949 µM) 97.5%; (second compound 1 µM, first compound 0.3 µM) 97.2%; (second compound 1 µM, first compound 0.949 µM) 106%; (second compound 1 µM, first compound 3 µM) 95.1%; (second compound 1 µM, first compound 9.49 µM) 86.2%; (second compound 1 µM, first compound 30 µM) 32.5%. Also, the viability, T/C is, setting by setting: (second compound 3.16 µM, first compound 0.0949 µM) 104%; (second compound 3.16 µM, first compound 0.3 µM) 101%; (second compound 3.16 µM, first compound 0.949 µM) 98.2%; (second compound 3.16 µM, first compound 3 µM) 105%; (second compound 3.16 µM, first compound 9.49 µM) 85.1%; (second compound 3.16 µM, first compound 30 µM) 34%. The viability, T/C by setting is: (second compound 10 µM, first compound 0.0949 µM) 107%; (second compound 10 µM, first compound 0.3 µM) 107%; (second compound 10 µM, first compound 0.949 µM) 93.6%; (second compound 10 µM, first compound 3 µM) 99%; (second compound 10 µM, first compound 9.49 µM) 53.7%; (second compound 10 µM, first compound 30 µM) 4.76%. For the same compound, the viability, T/C runs as follows: (second compound 31.6 µM, first compound 0.0949 µM) 107%; (second compound 31.6 µM, first compound 0.3 µM) 103%; (second compound 31.6 µM, first compound 0.949 µM) 106%; (second compound 31.6 µM, first compound 3 µM) 56%; (second compound 31.6 µM, first compound 9.49 µM) 2.11%; (second compound 31.6 µM, first compound 30 µM) 1.97%. Also, the viability, T/C reads like this: (second compound 100 µM, first compound 0.0949 µM) 104%; (second compound 100 µM, first compound 0.3 µM) 88.5%; (second compound 100 µM, first compound 0.949 µM) 27.7%; (second compound 100 µM, first compound 3 µM) 2.13%; (second compound 100 µM, first compound 9.49 µM) 1.91%; (second compound 100 µM, first compound 30 µM) 1.8%.
Take `Cn1ncnc1[C@H]1c2n[nH]c(=O)c3cc(F)cc(c23)N[C@@H]1c1ccc(F)cc1`: the viability, T/C (compound 0.00949 µM) is 112% and 99.5% and 92.6%; the viability, T/C (compound 0.03 µM) is 101% and 104% and 107%; the viability, T/C (compound 0.0949 µM) is 98.5% and 97% and 105%; the viability, T/C (compound 0.3 µM) was 97.8% and 95.6% and 94.2%; the viability, T/C (compound 0.949 µM) is 2.74% and 25.4% and 16.7%; the viability, T/C (compound 3 µM) is 2.53% and 1.95% and 1.33%. For the same compound, the IC50 (curve of compound) is 536 nM and 633 nM and 579 nM.
With `CC1COCCN1c1cc(-c2ccnn2C)c2ccnc(-c3ccn[nH]3)c2n1` (stereo not drawn) + COc1cc2c(cc1O)CCNC21CSC2c3c(OC(C)=O)c(C)c4c(c3C(COC1=O)N1C(O)C3Cc5cc(C)c(OC)c(O)c5C(C21)N3C)OCO4, the IC50 reads like this: (curve of first compound, second compound 30 pM) 74.6 nM; (curve of first compound, second compound 94.9 pM) 48.3 nM; (curve of first compound, second compound 0.0003 µM) below 31.6 nM; (curve of first compound, second compound 0.000949 µM) below 31.6 nM; (curve of first compound, second compound 0.003 µM) below 31.6 nM. The viability, T/C (second compound 30 pM, first compound 0.0316 µM) is 111%; the viability, T/C (second compound 30 pM, first compound 0.1 µM) is 28.8%; the viability, T/C (second compound 30 pM, first compound 0.316 µM) was 7.3%; the viability, T/C (second compound 30 pM, first compound 1 µM) was 4.7%; the viability, T/C (second compound 30 pM, first compound 3.16 µM) was 1.8%; the viability, T/C (second compound 30 pM, first compound 10 µM) was 2.96%. For the same compound, the viability, T/C is 73.7% (second compound 94.9 pM, first compound 0.0316 µM); 9.38% (second compound 94.9 pM, first compound 0.1 µM); 3.08% (second compound 94.9 pM, first compound 0.316 µM); 1.84% (second compound 94.9 pM, first compound 1 µM); 1.08% (second compound 94.9 pM, first compound 3.16 µM); 2.57% (second compound 94.9 pM, first compound 10 µM). The viability, T/C is, setting by setting: (second compound 0.0003 µM, first compound 0.0316 µM) 2.38%; (second compound 0.0003 µM, first compound 0.1 µM) 1.69%; (second compound 0.0003 µM, first compound 0.316 µM) 1.1%; (second compound 0.0003 µM, first compound 1 µM) 0.7%; (second compound 0.0003 µM, first compound 3.16 µM) 0.69%; (second compound 0.0003 µM, first compound 10 µM) 0.94%. The viability, T/C (second compound 0.000949 µM, first compound 0.0316 µM) was 0.28%; the viability, T/C (second compound 0.000949 µM, first compound 0.1 µM) was 0.34%; the viability, T/C (second compound 0.000949 µM, first compound 0.316 µM) is 0.31%; the viability, T/C (second compound 0.000949 µM, first compound 1 µM) is 0.09%; the viability, T/C (second compound 0.000949 µM, first compound 3.16 µM) is 0.03%; the viability, T/C (second compound 0.000949 µM, first compound 10 µM) is 0.13%. In addition, the viability, T/C is 0.19% (second compound 0.003 µM, first compound 0.0316 µM); 0.19% (second compound 0.003 µM, first compound 0.1 µM); 0.14% (second compound 0.003 µM, first compound 0.316 µM); 0.12% (second compound 0.003 µM, first compound 1 µM); 0.11% (second compound 0.003 µM, first compound 3.16 µM); 0.22% (second compound 0.003 µM, first compound 10 µM).
`COc1cc2c(cc1O)CCNC21CSC2c3c(OC(C)=O)c(C)c4c(c3C(COC1=O)N1C(O)C3Cc5cc(C)c(OC)c(O)c5C(C21)N3C)OCO4` (stereo not drawn): the viability, T/C is 106% [middle of 10 runs] (compound 30 pM); 107% [middle of 10 runs] (compound 94.9 pM); 105% [middle of 10 runs] (compound 0.0003 µM); 0.29% [middle of 9 runs] (compound 0.000949 µM); 0.17% [middle of 8 runs] (compound 0.003 µM). Further, where the note is “compound alone, run of 10/25/2019”, the half-maximal inhibitory concentration (IC50) was 0.548 nM [middle of 9 runs].
